Data from BigSolDB 2.1.

Nc1cnc(Br)cn1
solubility (mole fraction)
Conditions | in DMF | in acetone | in ethanol | in ethylene glycol | in isopropanol | in methanol | in n-butanol | in n-propanol | in propylene glycol | in water
278.15 K | 0.00849 | 0.00684 | 0.00144 | 0.000694 | 0.00282 | 0.000887 | 0.00541 | 0.00353 | 0.00113 | 1.76e-05
283.15 K | 0.00942 | 0.0076 | 0.00158 | 0.000773 | 0.00308 | 0.000981 | 0.00601 | 0.00392 | 0.00125 | 1.93e-05
288.15 K | 0.0106 | 0.00856 | 0.00174 | 0.000869 | 0.0034 | 0.00108 | 0.00678 | 0.00445 | 0.00139 | 2.18e-05
293.15 K | 0.0119 | 0.00961 | 0.00194 | 0.00097 | 0.0038 | 0.00121 | 0.00757 | 0.00497 | 0.00153 | 2.43e-05
298.15 K | 0.0133 | 0.0108 | 0.00217 | 0.00109 | 0.00429 | 0.00135 | 0.00853 | 0.00563 | 0.00173 | 2.73e-05
303.15 K | 0.0149 | 0.012 | 0.00243 | 0.00121 | 0.00477 | 0.00151 | 0.00953 | 0.00625 | 0.00192 | 3.08e-05
308.15 K | 0.0165 | 0.0134 | 0.00272 | 0.00135 | 0.00531 | 0.00167 | 0.0106 | 0.00696 | 0.00216 | 3.42e-05
313.15 K | 0.0185 | 0.0149 | 0.00308 | 0.00149 | 0.00594 | 0.00185 | 0.0118 | 0.00774 | 0.00239 | 3.83e-05
318.15 K | 0.0205 | 0.0165 | 0.00345 | 0.00166 | 0.0066 | 0.00204 | 0.0131 | 0.00858 | 0.00266 | 4.27e-05
323.15 K | 0.0227 | 0.0183 | 0.0039 | 0.00184 | 0.00735 | 0.00225 | 0.0145 | 0.0095 | 0.00294 | 4.77e-05
